{"source": "patent US20260284002A1", "about": "“COMPOSITIONS AND METHODS OF CONTROLLING MAMMALIAN SATIETY” (VitaKey Inc., priority 2023, published 2026)", "assay": "Release of linoleic acid in simulated intestinal fluid with 0.2% (w/v) sodium taurocholate", "assay_type": "physicochemical", "conditions": "simulated intestinal fluid 37° C. with 0.2% (w/v) sodium taurocholate; FIG. 25B", "procedure": "A mixture of 40% (w/w) linoleic acid, 30% (w/w) 27-Stearine, and 30% (w/w) CITREM was heated to 80° C. while stirring to allow for complete mixing, followed by cooling at 4° C. for 1 hour. […] Formulated linoleic acid microparticles were added to 3 of these 6 tubes, while unformulated linoleic acid was added to the remaining 3 tubes."}
{"smiles": "CCCCC/C=C\\C/C=C\\CCCCCCCC(=O)O", "note": "[unformulated linoleic acid, linoleic acid]", "values": [{"measurement": "emulsification in bile-salt rich simulated intestinal fluid", "value": "rapidly emulsified"}]}
